From patent US20120270237A9, “METHODS FOR THE IDENTIFICATION OF KINASE INTERACTING MOLECULES AND FOR THE PURIFICATION OF KINASE PROTEINS” (Cellzone AG, priority 2009, published 2012)

Columns and labels:
YES = YES (Homo sapiens, UniProt P07947); test: Kinobeads competition binding, HeLa Placenta lysate mix; design: kinases from mixed HeLa placenta lysates; endogenous in cells; host or cells: mixed lysate of HeLa cells and placenta tissue; settings: 10 μM free compound
Method: (§1) To one aliquot of cell lysate 10 μM of the free compound (FIG. 3, CZC31326) was added and allowed to bind to proteins in the lysate. Then the affinity matrix with the immobilized compound was added to capture proteins that were not interacting with the previously added free compound. Beads were separated from the lysate and bead bound proteins were eluted in SDS sample buffer and subsequently separated by SDS-Polyacrylamide gel electrophoresis (FIG. 10). Suitable gel bands were cut out and subjected to in-gel proteolytic digestion with trypsin. The second lysate aliquot was processed identically, however no free compound was added (DMSO solvent control). Peptides originating from samples 1 and 2 were labeled with iTRAQ reagents (iTRAQ 114 and iTRAQ 117) and the combined samples were analyzed with a nano-flow liquid chromatography system coupled online to a tandem mass spectrometer (LC-MS/MS) experiment followed by iTRAQ reporter ion quantification in the MS/MS spectra as described in Example 2.

TEC = biological target: T1, TEC (Homo sapiens, UniProt P42680); test: as above; design: kinases from mixed HeLa placenta lysates; endogenous in cells; host or cells: mixed lysate of HeLa cells and placenta tissue; settings: 10 μM free compound
T1 sequence (P42680 1-631): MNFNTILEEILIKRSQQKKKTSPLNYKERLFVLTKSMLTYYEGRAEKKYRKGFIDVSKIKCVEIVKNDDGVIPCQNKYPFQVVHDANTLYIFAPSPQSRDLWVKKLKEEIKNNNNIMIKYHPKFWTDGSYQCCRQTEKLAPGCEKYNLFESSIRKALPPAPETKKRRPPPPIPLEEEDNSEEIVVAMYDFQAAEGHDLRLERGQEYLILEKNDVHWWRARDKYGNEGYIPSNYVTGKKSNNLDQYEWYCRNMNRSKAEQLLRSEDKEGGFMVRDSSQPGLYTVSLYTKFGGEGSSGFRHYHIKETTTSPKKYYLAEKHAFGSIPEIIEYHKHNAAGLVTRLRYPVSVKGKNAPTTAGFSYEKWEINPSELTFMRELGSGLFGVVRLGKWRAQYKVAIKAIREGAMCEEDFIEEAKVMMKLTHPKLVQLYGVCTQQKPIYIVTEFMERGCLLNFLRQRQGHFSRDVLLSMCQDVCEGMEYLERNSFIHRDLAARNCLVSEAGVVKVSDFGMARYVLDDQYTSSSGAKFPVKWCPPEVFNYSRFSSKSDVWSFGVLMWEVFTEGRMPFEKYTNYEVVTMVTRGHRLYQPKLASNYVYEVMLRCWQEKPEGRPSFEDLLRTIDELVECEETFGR
Method: as §1

JAK2 = JAK2 (Homo sapiens, UniProt O60674); test: Kinobeads competition binding, L-363 cell lysate; design: Identified kinases with CZC31326 from L-363 cell lysate; endogenous in cells; host or cells: L-363 (MG132-treated); settings: 10 μM free compound, L-363 lysate
Sequence of JAK2 (O60674 whole entry): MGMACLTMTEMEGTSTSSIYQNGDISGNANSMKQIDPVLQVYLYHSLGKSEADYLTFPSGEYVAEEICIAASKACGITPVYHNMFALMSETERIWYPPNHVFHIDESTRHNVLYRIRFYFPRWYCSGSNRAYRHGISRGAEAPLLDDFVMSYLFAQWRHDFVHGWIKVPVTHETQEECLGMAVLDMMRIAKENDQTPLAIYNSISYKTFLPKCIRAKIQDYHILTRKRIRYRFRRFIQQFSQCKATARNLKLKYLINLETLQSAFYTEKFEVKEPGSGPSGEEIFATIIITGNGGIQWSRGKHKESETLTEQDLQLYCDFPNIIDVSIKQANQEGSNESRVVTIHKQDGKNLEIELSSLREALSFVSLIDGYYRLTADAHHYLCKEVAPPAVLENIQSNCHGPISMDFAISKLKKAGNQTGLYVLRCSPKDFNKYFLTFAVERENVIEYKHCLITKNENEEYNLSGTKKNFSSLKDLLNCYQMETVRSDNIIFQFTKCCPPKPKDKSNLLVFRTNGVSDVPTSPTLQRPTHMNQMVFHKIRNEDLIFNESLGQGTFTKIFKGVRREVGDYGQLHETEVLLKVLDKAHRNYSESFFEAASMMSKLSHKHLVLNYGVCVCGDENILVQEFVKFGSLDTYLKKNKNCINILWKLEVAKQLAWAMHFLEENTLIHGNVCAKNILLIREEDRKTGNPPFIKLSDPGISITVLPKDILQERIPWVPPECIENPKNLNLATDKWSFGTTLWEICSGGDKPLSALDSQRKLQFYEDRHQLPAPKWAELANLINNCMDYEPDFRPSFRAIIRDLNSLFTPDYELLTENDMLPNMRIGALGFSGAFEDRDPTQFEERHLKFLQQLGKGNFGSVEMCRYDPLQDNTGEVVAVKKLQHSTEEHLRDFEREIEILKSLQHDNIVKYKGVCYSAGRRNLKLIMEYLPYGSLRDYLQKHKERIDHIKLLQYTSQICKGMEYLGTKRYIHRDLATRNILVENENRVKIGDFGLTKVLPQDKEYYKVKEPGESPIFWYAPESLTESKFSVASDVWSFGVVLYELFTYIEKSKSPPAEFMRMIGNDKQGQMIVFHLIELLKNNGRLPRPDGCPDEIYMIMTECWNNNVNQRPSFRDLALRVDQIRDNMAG
Method: as §1, with “8).” for “10).”
(§2) For this experiment the human plasma cell leukaemia line L-363 was used (German Collection of Microorganisms and Cell Cultures, DSMZ number ACC49, Braunschweig, Germany). Cells were treated for three hours with 20 μM of the proteasome inhibitor MG132 (Z-Leu-Leu-Leu-al, Sigma C2211) prior to cell harvesting.

JAK1 = JAK1 (Homo sapiens, UniProt P23458); test: Kinobeads competition binding, L-363 cell lysate; design: Identified kinases with CZC31326 from L-363 cell lysate; endogenous in cells; host or cells: L-363 (MG132-treated); settings: 10 μM free compound, L-363 lysate
Sequence of JAK1 (P23458 whole entry): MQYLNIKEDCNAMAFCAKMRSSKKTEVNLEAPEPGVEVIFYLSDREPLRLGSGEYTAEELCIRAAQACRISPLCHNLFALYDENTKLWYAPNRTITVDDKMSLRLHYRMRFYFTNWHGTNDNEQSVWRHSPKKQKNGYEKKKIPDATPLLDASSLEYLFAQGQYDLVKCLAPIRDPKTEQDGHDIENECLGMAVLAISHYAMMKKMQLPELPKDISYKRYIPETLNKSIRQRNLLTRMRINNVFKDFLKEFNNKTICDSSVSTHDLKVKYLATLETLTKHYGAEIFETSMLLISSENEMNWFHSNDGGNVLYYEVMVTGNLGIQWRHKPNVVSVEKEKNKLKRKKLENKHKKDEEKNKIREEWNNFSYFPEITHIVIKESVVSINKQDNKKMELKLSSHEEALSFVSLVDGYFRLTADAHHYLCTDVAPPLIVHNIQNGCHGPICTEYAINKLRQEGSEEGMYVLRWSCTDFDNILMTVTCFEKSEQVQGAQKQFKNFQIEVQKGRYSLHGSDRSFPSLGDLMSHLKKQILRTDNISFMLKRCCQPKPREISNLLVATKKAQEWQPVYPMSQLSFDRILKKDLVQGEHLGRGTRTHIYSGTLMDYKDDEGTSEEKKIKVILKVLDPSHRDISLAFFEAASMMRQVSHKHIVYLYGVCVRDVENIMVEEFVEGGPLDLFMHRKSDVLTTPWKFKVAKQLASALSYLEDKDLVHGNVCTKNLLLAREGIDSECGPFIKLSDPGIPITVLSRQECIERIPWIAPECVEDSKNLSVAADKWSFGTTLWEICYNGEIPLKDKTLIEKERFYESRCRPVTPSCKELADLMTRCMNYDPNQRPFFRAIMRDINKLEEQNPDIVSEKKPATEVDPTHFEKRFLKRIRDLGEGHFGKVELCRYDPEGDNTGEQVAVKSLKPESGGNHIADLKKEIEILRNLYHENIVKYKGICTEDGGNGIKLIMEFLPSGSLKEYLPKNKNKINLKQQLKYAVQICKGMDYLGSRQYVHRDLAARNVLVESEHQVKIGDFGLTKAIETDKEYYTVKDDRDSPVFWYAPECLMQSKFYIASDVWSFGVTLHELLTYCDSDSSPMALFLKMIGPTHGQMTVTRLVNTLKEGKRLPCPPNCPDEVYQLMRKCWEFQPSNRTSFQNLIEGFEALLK
Method: as §1, with “8).” for “10).”
as §2

IRE1 = IRE1 (Homo sapiens, UniProt O75460); test: Kinobeads competition binding, L-363 cell lysate; design: Identified kinases with CZC31326 from L-363 cell lysate; endogenous in cells; host or cells: L-363 (MG132-treated); settings: 10 μM free compound, L-363 lysate
Sequence of IRE1 (O75460 19-977): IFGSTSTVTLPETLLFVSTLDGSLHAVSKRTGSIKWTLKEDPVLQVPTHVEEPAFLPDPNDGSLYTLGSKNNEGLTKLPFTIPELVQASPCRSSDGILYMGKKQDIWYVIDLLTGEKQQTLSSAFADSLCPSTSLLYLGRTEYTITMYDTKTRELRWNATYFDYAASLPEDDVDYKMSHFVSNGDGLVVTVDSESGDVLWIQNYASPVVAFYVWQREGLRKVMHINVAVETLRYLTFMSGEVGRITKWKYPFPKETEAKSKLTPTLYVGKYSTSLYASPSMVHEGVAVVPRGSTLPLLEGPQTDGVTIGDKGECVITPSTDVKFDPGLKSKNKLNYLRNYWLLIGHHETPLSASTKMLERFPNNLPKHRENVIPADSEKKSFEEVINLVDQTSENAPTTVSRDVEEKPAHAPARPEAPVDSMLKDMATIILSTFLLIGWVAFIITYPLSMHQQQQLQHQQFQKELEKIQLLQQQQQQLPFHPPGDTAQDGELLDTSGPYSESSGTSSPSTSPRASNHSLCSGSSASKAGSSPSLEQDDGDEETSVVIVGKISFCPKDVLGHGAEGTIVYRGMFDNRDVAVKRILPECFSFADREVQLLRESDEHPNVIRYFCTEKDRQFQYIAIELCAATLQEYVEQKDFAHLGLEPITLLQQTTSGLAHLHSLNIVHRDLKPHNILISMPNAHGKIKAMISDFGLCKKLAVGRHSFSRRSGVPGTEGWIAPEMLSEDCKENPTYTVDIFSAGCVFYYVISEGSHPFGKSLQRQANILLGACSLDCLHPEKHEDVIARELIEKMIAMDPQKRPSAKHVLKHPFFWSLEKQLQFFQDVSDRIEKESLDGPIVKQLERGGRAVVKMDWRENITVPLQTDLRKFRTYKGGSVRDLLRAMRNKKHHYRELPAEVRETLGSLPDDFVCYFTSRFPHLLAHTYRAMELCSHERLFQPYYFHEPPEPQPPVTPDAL
Method: as §1, with “8).” for “10).”
as §2

JNK2 = JNK2 (Homo sapiens, UniProt P45984); test: Kinobeads competition binding, L-363 cell lysate; design: Identified kinases with CZC31326 from L-363 cell lysate; endogenous in cells; host or cells: L-363 (MG132-treated); settings: 10 μM free compound, L-363 lysate
Sequence of JNK2 (P45984 whole entry): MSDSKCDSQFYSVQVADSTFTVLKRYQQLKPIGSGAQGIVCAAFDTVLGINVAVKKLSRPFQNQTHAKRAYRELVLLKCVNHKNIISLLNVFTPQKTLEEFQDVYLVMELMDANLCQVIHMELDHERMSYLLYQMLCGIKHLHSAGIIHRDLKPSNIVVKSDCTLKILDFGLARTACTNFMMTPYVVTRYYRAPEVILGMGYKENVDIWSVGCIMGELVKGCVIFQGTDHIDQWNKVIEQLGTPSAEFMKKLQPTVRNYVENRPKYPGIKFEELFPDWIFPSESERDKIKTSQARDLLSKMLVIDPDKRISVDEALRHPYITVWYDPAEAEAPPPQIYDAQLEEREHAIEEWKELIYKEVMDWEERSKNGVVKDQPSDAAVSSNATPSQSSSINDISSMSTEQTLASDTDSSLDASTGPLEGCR
Method: as §1, with “8).” for “10).”
as §2

Sequence of YES (P07947 whole entry): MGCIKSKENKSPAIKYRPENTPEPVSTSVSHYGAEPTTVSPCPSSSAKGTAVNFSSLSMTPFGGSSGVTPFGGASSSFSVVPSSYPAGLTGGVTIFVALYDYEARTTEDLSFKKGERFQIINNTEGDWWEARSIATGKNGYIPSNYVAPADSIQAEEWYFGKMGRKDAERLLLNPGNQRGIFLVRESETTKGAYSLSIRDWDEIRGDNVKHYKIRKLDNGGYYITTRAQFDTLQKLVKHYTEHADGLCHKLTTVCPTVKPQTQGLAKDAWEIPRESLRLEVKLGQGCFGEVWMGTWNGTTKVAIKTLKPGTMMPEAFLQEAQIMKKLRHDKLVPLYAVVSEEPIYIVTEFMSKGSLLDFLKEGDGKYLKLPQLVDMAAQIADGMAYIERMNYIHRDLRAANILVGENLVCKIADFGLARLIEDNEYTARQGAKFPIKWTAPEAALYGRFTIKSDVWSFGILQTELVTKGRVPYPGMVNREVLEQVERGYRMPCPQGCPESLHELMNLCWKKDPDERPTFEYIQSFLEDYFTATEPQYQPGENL

- inhibition at 10 µM (YES): 90.3%
- inhibition at 10 µM (TEC): 89.2%
- Competition % (JAK2): 96.1%
- Competition % (JAK1): 97.2%
- inhibition at 10 µM (IRE1): 97.9%
- Competition % (JNK2): 88%
Compound: CS(=O)(=O)Nc1ccccc1Nc1nc(Nc2cccc(OCCN)c2)ncc1Cl [CZC31326, N-(2-(2-(3-(2-aminoethoxy)phenylamino)-5-chloropyrimidin-4-ylamino)phenyl)methanesulfonamide]
